Results: ChEMBL document CHEMBL1201862, “PubChem BioAssay data set” (2004)
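Cultured in 96-well plates, cells were exposed to test compound for 48 hours across five concentrations. GI50 marks 50% less growth.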 Calls of active or inactive are those of the source. Cut-off read from the data, not from the text of the source: active = GI50 up to about 1.1 µM and inactive = higher.

Legend:
Assay in all cases: NCI-60 cell line screen, 48 h
HCT-15 = tested on: HCT-15
SK-MEL-5 = tested on: SK-MEL-5
MDA-MB-435 = tested on: MDA-MB-435
KM12 = tested on: KM12
SK-OV-3 = tested on: SK-OV-3
HOP-62 = tested on: HOP-62
NCI-H522 = tested on: NCI-H522
NCI-H460 = tested on: NCI-H460
MOLT-4 = tested on: MOLT-4
IGROV-1 = tested on: IGROV-1
COLO 205 = tested on: COLO 205
786-0 = tested on: 786-0
CAKI-1 = tested on: CAKI-1
SNB-75 = tested on: SNB-75
OVCAR-5 = tested on: OVCAR-5
M14 = tested on: M14
DU-145 = tested on: DU-145
SF-539 = tested on: SF-539
RXF 393 = tested on: RXF 393

In the case of `CS(=O)(=O)CCC(N)P(=O)(O)O` (stereo not given), the GI50 (HCT-15) is reported as greater than 100 µM, the GI50 (SK-MEL-5) is reported as > 100 µM (inactive) and the GI50 (MDA-MB-435) is reported as > 100 µM (inactive). The GI50 (KM12) was > 100 µM (inactive), the GI50 (SK-OV-3) was > 100 µM (inactive) and the GI50 (HOP-62) was > 100 µM (inactive). The GI50 (NCI-H522) was > 100 µM (inactive), the GI50 (NCI-H460) was > 100 µM (inactive) and the GI50 (MOLT-4) was > 100 µM (inactive). For the same molecule, the GI50 (IGROV-1) was > 100 µM (inactive), the GI50 (COLO 205) was > 100 µM (inactive) and the GI50 (786-0) was > 100 µM (inactive). For the same molecule, the GI50 (CAKI-1) was > 100 µM (inactive), the GI50 (SNB-75) was > 100 µM (inactive) and the GI50 (OVCAR-5) was > 100 µM (inactive). For the same molecule, the GI50 (M14) was > 100 µM (inactive) and the GI50 (DU-145) was > 100 µM (inactive).

With `O=C(CN1c2ccccc2Sc2ccccc21)n1cnc2ccccc21` the GI50 (HCT-15) was 99.8 µM, the GI50 (SK-MEL-5) was 56.9 µM (inactive) and the GI50 (MDA-MB-435) was > 100 µM (inactive). For the same molecule, the GI50 (KM12) was 59.8 µM (inactive), the GI50 (SK-OV-3) was 47.1 µM (inactive) and the GI50 (HOP-62) was > 100 µM (inactive). For the same molecule, the GI50 (NCI-H460) was 97.5 µM (inactive), the GI50 (MOLT-4) was 51.4 µM (inactive) and the GI50 (IGROV-1) was > 100 µM (inactive). For the same molecule, the GI50 (SF-539) was > 100 µM (inactive), the GI50 (COLO 205) was 92.3 µM (inactive) and the GI50 (786-0) was 52.6 µM (inactive). For the same molecule, the GI50 (SNB-75) was > 100 µM (inactive), the GI50 (OVCAR-5) was 80 µM (inactive) and the GI50 (RXF 393) was > 100 µM (inactive). For the same molecule, the GI50 (M14) was 59.2 µM (inactive) and the GI50 (DU-145) was > 100 µM (inactive).

With `CC(C)(C)OC(=O)NCCC(N)=S` the GI50 (HCT-15) was greater than 100 µM, the GI50 (SK-MEL-5) was > 100 µM (inactive) and the GI50 (MDA-MB-435) was > 100 µM (inactive). For the same molecule, the GI50 (KM12) was > 100 µM (inactive), the GI50 (SK-OV-3) was > 100 µM (inactive) and the GI50 (HOP-62) was > 100 µM (inactive). For the same molecule, the GI50 (NCI-H460) was > 100 µM (inactive), the GI50 (MOLT-4) was > 100 µM (inactive) and the GI50 (IGROV-1) was > 100 µM (inactive). The GI50 (SF-539) was > 100 µM (inactive), the GI50 (COLO 205) was > 100 µM (inactive) and the GI50 (786-0) was > 100 µM (inactive). For the same molecule, the GI50 (SNB-75) was > 100 µM (inactive), the GI50 (OVCAR-5) was > 100 µM (inactive) and the GI50 (RXF 393) was > 100 µM (inactive). For the same molecule, the GI50 (M14) was > 100 µM (inactive) and the GI50 (DU-145) was > 100 µM (inactive).

`COc1ccc(C2N(c3ccc(F)cc3)C(=O)N3C(c4ccc(OC)cc4)N(c4ccc(F)cc4)C(=O)N23)cc1` (stereo not given) was tested, and the GI50 (HCT-15) was greater than 100 µM, the GI50 (SK-MEL-5) was > 100 µM (inactive) and the GI50 (MDA-MB-435) was > 100 µM (inactive). For the same molecule, the GI50 (KM12) was > 100 µM (inactive), the GI50 (HOP-62) was > 100 µM (inactive) and the GI50 (NCI-H522) was > 100 µM (inactive). For the same molecule, the GI50 (NCI-H460) was > 100 µM (inactive), the GI50 (IGROV-1) was > 100 µM (inactive) and the GI50 (SF-539) was > 100 µM (inactive). The GI50 (COLO 205) was > 100 µM (inactive), the GI50 (786-0) was > 100 µM (inactive) and the GI50 (CAKI-1) was > 100 µM (inactive). The GI50 (SNB-75) was > 100 µM (inactive), the GI50 (OVCAR-5) was > 100 µM (inactive) and the GI50 (RXF 393) was > 100 µM (inactive). The GI50 (M14) was > 100 µM (inactive) and the GI50 (DU-145) was > 100 µM (inactive).

In the case of `O=C1CCCCC(=O)Nc2ccccc2N1`, the GI50 (HCT-15) is reported as greater than 100 µM, the GI50 (SK-MEL-5) is reported as > 100 µM (inactive) and the GI50 (MDA-MB-435) is reported as > 100 µM (inactive). For the same molecule, the GI50 (KM12) was > 100 µM (inactive), the GI50 (SK-OV-3) was > 100 µM (inactive) and the GI50 (HOP-62) was > 100 µM (inactive). For the same molecule, the GI50 (NCI-H522) was > 100 µM (inactive), the GI50 (NCI-H460) was > 100 µM (inactive) and the GI50 (MOLT-4) was > 100 µM (inactive). The GI50 (IGROV-1) was > 100 µM (inactive), the GI50 (SF-539) was > 100 µM (inactive) and the GI50 (COLO 205) was > 100 µM (inactive). The GI50 (786-0) was > 100 µM (inactive), the GI50 (CAKI-1) was > 100 µM (inactive) and the GI50 (OVCAR-5) was > 100 µM (inactive). For the same molecule, the GI50 (RXF 393) was > 100 µM (inactive), the GI50 (M14) was > 100 µM (inactive) and the GI50 (DU-145) was > 100 µM (inactive).

`CCC1OC2(C)CC(C#N)(C#N)C1(C#N)C(=N)O2` (stereo not given) was tested, and the GI50 (SK-MEL-5) was > 100 µM (inactive), the GI50 (MDA-MB-435) was > 100 µM (inactive) and the GI50 (KM12) was > 100 µM (inactive). For the same molecule, the GI50 (SK-OV-3) was > 100 µM (inactive), the GI50 (MOLT-4) was > 100 µM (inactive) and the GI50 (IGROV-1) was > 100 µM (inactive). For the same molecule, the GI50 (SF-539) was > 100 µM (inactive), the GI50 (COLO 205) was > 100 µM (inactive) and the GI50 (786-0) was > 100 µM (inactive). The GI50 (CAKI-1) was > 100 µM (inactive), the GI50 (SNB-75) was > 100 µM (inactive) and the GI50 (OVCAR-5) was > 100 µM (inactive). For the same molecule, the GI50 (RXF 393) was > 100 µM (inactive), the GI50 (M14) was > 100 µM (inactive) and the GI50 (DU-145) was > 100 µM (inactive).

For `COc1ccc(O)c(/C=N/CCC/N=C/c2cc(OC)ccc2O)c1`, the GI50 (HCT-15) was 18.1 µM, the GI50 (MDA-MB-435) was 22.6 µM (inactive) and the GI50 (KM12) was 13.8 µM (inactive). For the same molecule, the GI50 (HOP-62) was 52.1 µM (inactive), the GI50 (NCI-H522) was 46 µM (inactive) and the GI50 (NCI-H460) was 41.4 µM (inactive). For the same molecule, the GI50 (MOLT-4) was 16.6 µM (inactive), the GI50 (IGROV-1) was 34.4 µM (inactive) and the GI50 (786-0) was 33.7 µM (inactive). The GI50 (SNB-75) was 18.3 µM (inactive), the GI50 (OVCAR-5) was 38.3 µM (inactive) and the GI50 (RXF 393) was 25.6 µM (inactive). For the same molecule, the GI50 (M14) was 37.2 µM (inactive) and the GI50 (DU-145) was 22 µM (inactive).
